{"source": "patent US6682718B1", "about": "“Remedies for periodontosis” (Yamanouchi Pharmaceutical Co., Ltd., priority 1999, dated 2004)", "key": {"[1]": {"test_system": "dog periodontitis model", "details": "oral administration; cited from earlier work"}, "[2]": {"test_system": "monkey periodontitis model", "details": "oral administration; cited from earlier work"}, "[3]": {"test_system": "tooth movement model (tooth relapse)", "assay": "Tooth movement model in rat, intra-gingival administration"}, "[4]": {"test_system": "experimental periodontitis induced by silk thread ligation of P3 and P4", "assay": "Canine periodontitis model study, topical alveolar mucosa injection (Example 1): alveolar bone loss and clinical scores", "type": "in vivo, beagle dogs", "description": "The standardized X-ray photographing method (J. Periodontol., 33, 164-171 (1962)) was employed, in which irradiation direction of X-ray to a subject and position of the film are always kept constant so that X-ray photographs of the same region of the same individual can be obtained repeatedly always under the same conditions. This time, in order to evaluate alveolar bone loss around P3 and P4 of right and left mandibles, a cap was formed between incisor tooth and M1 of both mandibles using an acrylic resin, and a fixing device was prepared by combining this cap with a film holder.\nEach animal was anesthetized with xylazine hydrochloride and ketamine hydrochloride (Ketalar, Sankyo), and a dental film (Ultra Speed DF58, Kodak) was attached to the film holder on the fixing device to photograph X-ray by a dental X-ray photographing apparatus (Super Max 70, type HD-1, Morita Seisakusho).\nThat is, an X-ray film was measured under a stereoscopic microscope (objective×1, eyepiece×10), an OHP sheet was put on the X-ray film, and line a, line b and line c were marked on the OHP sheet using a ceramic knife, thereby obtaining respective two points b and b′ and c and c′ on line b and line c. Distances between the b-b′ and c-c′ were respectively defined as the distances from the reference points (b and c points) to the alveolar bone crest. The length of alveolar bone loss was expressed by averaging values obtained by subtracting the sum of b-b′ and c-c′ distances in each individual at the time of each week from the sum of b-b′ and c-c′ distances at the time of ligation.\nMeasurement of the depth of periodontal pockets was carried out by a four point measuring method in accordance with J. Clin. Periodontol., 4, 173-190 (1997)).\nRegarding the length of gingival recession, the distance from the reference point on the tooth crown prepared at the time of ligation to the gingival margin was measured on two regions, the buccal and lingual side, of P4 at the time of each week in each individual, and expressed as the average value.\nAttachment level is an index for measuring position of the bottom of gingival sulcus (pocket bottom), and was expressed as the distance from the pocket bottom to the reference point on the tooth crown. That is, a value of the depth of pocket plus the length of gingival recession was used as the attachment level.\nRegions of inflammation and degree of the symptoms of gingiva were evaluated in accordance with J. Periodontol., 38, 602-610 (1967))."}, "[5]": {"test_system": "hamster periodontitis model", "details": "subcutaneous administration; cited from earlier work"}, "[6]": {"assay": "Intra-alveolar bone drug concentration, high dose topical study (Comparative Example 1)", "type": "in vivo", "details": "beagle, dog, read-out: Intra-alveolar bone concentration of incadronate", "method": "(§1) Using 26 animals of beagle dog (3 to 6 years, body weight at the time of grouping 6.1 to 12.9 kg), topical administration study in a canine periodontitis model were carried out on a), control group: physiological saline, b) incadronate […] group and c) incadronate 150 μg/site group."}, "[7]": {"assay": "Intra-alveolar bone and intra-rib drug concentration, canine periodontitis model (Example 1)", "details": "for Intra-rib drug concentration: 13 weeks after final administration; for concentration at 13 weeks after final administration: female, beagle, dog, other: alveolar mucosa injection", "description": "A total of 30 animals of female beagle dogs (1 to 2 years, body weight at the time of grouping 7.9 to 13.7 kg) were fed with a soft diet prepared by impregnating Gains Packen (AGF) with water from the previous day of ligation and used in this study. Under anesthesia with xylazine hydrochloride (Bayer) and pentobarbital, gingiva between second premolar (hereinafter, P2)/third premolar (hereinafter, P3), between P3/fourth premolar (hereinafter, P4) and between P4/first molar (hereinafter, M1) of right and left mandibles were incised with a surgical knife, and periodontal pockets were prepared around P3 and P4 using a periosteal elevator. An experimental periodontitis was induced by placing double-ligation of silk threads (surgical thread; Nescosuture (3-0), Morita) around the cervices of P3 and P4. In this case, reference points were prepared on the buccal side and lingual side of the crown of P4 at the height of gingival margin using dental drill. […] 1) Control group: physiological saline, 2) incadronate […] group, 3) incadronate 1.5 μg/site group, 4) incadronate 5.0 μg/site group and 5) incadronate 15 μg/site group.\nThe administration was started just after the surgical operation in each group. Incadronate (an injection, mfd. by Yamanouchi Pharmaceutical Co., Ltd.) was prepared and diluted with saline such that the administration liquid volume became 150 μl/site. The administration was carried out a total of three times, namely just after the ligation and 1 and 2 weeks after the ligation. The administration was carried out by the alveolar mucosa injection method using a 27 G injection needle attached to a glass micro-syringe. The injection needle was inserted horizontally to the alveolar mucosa close to the boundary between the alveolar mucosa and gingiva (muco-gingival junction) around the ligated tooth, and 150 μl of a drug solution was injected between periosteum of the alveolar bone and alveolar mucosa. The administration was carried out on both of the buccal and lingual side (a total of 4 sites per 1 mandible, 600 μl in total). Each animal was sacrificed by exsanguination 13 weeks after the final administration, and the mandibles including P3 and P4 of right and left side and the ribs were harvested and submitted to the intra-bone drug concentration measurement.\nRoot of the left fourth premolar was extracted using cutting pliers, the whole mandible containing jaw bone and alveolar bone was divided up and down into two, and the upper ½ was considered as the alveolar bone. […] Incadronate was extracted from these samples using a calcium precipitation method and its intra-bone drug concentration was measured by an HPLC method."}, "[8]": {"test_system": "canine periodontitis model", "details": "oral administration; cited from earlier work"}, "[9]": {"test_system": "experimental periodontitis (canine periodontitis model)", "assay": "High dose topical administration study in canine periodontitis model (Comparative Example 1): alveolar bone loss and clinical scores", "type": "in vivo, beagle dog", "details": "50 and 150 μg/site groups vs control, 3 topical injections", "method": "as §1"}, "[10]": {"assay": "Alveolar bone drug concentration in rat tooth movement model", "type": "in vivo", "details": "10 μg/50 μl/kg group"}, "[11]": {"assay": "Alveolar bone drug concentration after oral administration in canine periodontitis model", "type": "in vivo", "details": "dog, oral 1.0 mg/kg, at completion of 26 weeks administration", "method": "Thereafter, it was confirmed that the drug concentration in the alveolar bone is about 4 μg/g in that case.\nIntra-alveolar bone concentration of incadronate was 5.67 and 4.28 μg/g bone. This was similar to the intra-alveolar bone drug concentration of about 4 μg/g at the time of the completion of 26 weeks oral administration of 1.0 mg/kg of incadronate (J. Periodont. Res., 33, 196-204 (1998))."}, "[12]": {"test_system": "lamina propria mucosae of the administered sites", "assay": "Local irritation to the lamina propria mucosae of the administered sites (Comparative Example 1)", "type": "in vivo, beagle dog", "method": "as §1"}, "[13]": {"test_system": "rat molar experimental tooth movement models", "details": "cited from earlier work"}}, "note": "“Also recorded” adds a separate entry of the source. Read-outs that look alike come from different tables or passages of the source."}
{"smiles": "NCCCC(O)(P(=O)(O)O)P(=O)(O)O", "note": "[alendronate]", "values": [{"measurement": "alveolar bone destruction", "setting": "[1]", "result": "inhibited alveolar bone destruction"}, {"measurement": "alveolar bone destruction", "setting": "[2]", "result": "inhibited alveolar bone destruction"}]}
{"smiles": "O.O=P([O-])([O-])C(NC1CCCCCC1)P(=O)(O)O.[Na+].[Na+]", "note": "[incadronate, disodium cycloheptylaminomethylenediphosphonate monohydrate]", "values": [{"measurement": "effect on tooth relapse", "setting": "[3]; 10 μg/50 μl/kg intra-gingival (200 μg/ml)", "result": "no effect"}, {"measurement": "effect on tooth relapse", "setting": "[3]; 100 μg/50 μl/kg intra-gingival (2,000 μg/ml)", "result": "good tooth relapse inhibitory action"}, {"measurement": "local irritation in gross observation", "setting": "[3]; 10 or 100 μg/50 μl/kg intra-gingival", "result": "not observed"}, {"measurement": "acceleration of pocket depth", "setting": "[4]; 2 and 4 weeks after the ligation, dose of 1.5 μg/site or more", "result": "significantly inhibited"}, {"measurement": "exacerbation of gingival index", "setting": "[4]; after 2 weeks of the ligation, dose of 1.5 μg/site or more", "result": "significantly inhibited"}, {"measurement": "reduction of attachment level", "setting": "[4]; after 4 and 15 weeks of the ligation, dose of 1.5", "result": "significantly inhibited"}, {"measurement": "dose at which alveolar bone loss inhibitory action was most potent", "setting": "[4]; doses 0.5, 1.5, 5.0, 15 μg/site tested", "result": 5, "unit": "μg/site"}, {"measurement": "reduction of attachment level", "setting": "[4]; in and after 2 weeks of the ligation, dose of 5 or more", "result": "significantly inhibited"}, {"measurement": "acceleration of gingival recession", "setting": "[4]; in and after 4 weeks of the ligation, dose of 5 or more", "result": "significantly inhibited"}, {"measurement": "aggravation of the clinical scores of periodontitis", "setting": "[4]; incadronate-treated groups", "result": "inhibited"}, {"measurement": "alveolar bone loss (standardized X-ray)", "setting": "[4]; incadronate-treated groups 0.5-15 μg/site vs control, after ligation", "result": "inhibited"}, {"measurement": "acceleration of gingival recession", "setting": "[4]; only after 15 weeks of the ligation, dose of 1.5", "result": "significantly inhibited"}, {"measurement": "alveolar bone loss", "setting": "[5]", "result": "alveolar bone loss inhibitory action"}, {"measurement": "concentration at 8 weeks after final administration", "setting": "[6]; 50 μg/site group (first value)", "result": 5670, "unit": "ng/g"}, {"measurement": "concentration at 8 weeks after final administration", "setting": "[6]; 150 μg/site group", "result": 4280, "unit": "ng/g"}, {"measurement": "intra-rib concentration as fraction of the intra-alveolar bone concentration", "setting": "[7]; 5 to 15 μg/site-administered groups", "result": "1/10"}, {"measurement": "Intra-rib drug concentration", "setting": "[7]; dose 0.5 μg/site", "result": "N.D. (N.D. indicates detection limit (0.025 μg/g) or less)"}, {"measurement": "Intra-rib drug concentration", "setting": "[7]; dose 1.5 μg/site", "result": "N.D. (N.D. indicates detection limit (0.025 μg/g) or less)"}, {"measurement": "concentration at 13 weeks after final administration", "setting": "[7]; alveolar bone, 0.5 μg/site", "result": "58 ± 8", "unit": "ng/g"}, {"measurement": "concentration at 13 weeks after final administration", "setting": "[7]; alveolar bone, 1.5 μg/site", "result": "174 ± 11", "unit": "ng/g"}, {"measurement": "concentration at 13 weeks after final administration", "setting": "[7]; alveolar bone, 5 μg/site", "result": "356 ± 70", "unit": "ng/g"}, {"measurement": "concentration at 13 weeks after final administration", "setting": "[7]; alveolar bone, 15 μg/site", "result": "1040 ± 313", "unit": "ng/g"}, {"measurement": "concentration at 13 weeks after final administration", "setting": "[7]; rib (epiphyseal region), 5 μg/site", "result": "33 ± 3", "unit": "ng/g"}, {"measurement": "concentration at 13 weeks after final administration", "setting": "[7]; rib (epiphyseal region), 15 μg/site", "result": "91 ± 16", "unit": "ng/g"}, {"measurement": "alveolar bone loss and attachment level", "setting": "[8]", "result": "alveolar bone loss inhibitory and attachment level improving actions"}, {"measurement": "alveolar bone resorption inhibitory action", "setting": "[8]", "result": "shows an alveolar bone resorption inhibitory action dose-dependently"}, {"measurement": "suitable dose", "setting": "[8]", "result": 1.0, "unit": "mg/kg"}, {"measurement": "clinical scores", "setting": "[9]", "result": "no significant difference"}, {"measurement": "alveolar bone loss inhibitory action", "setting": "[9]; monohydrate", "result": "unable to exert alveolar bone resorption inhibitory action; also recorded: no significant difference"}, {"measurement": "average concentration in the alveolar bone", "setting": "[10]", "result": 0.6, "unit": "µg/g"}, {"measurement": "concentration at 26 weeks", "setting": "[11]", "result": "~4000", "unit": "ng/g"}, {"measurement": "local irritation to the lamina propria mucosae of the administered sites", "setting": "[12]; 50 μg/site group", "result": "slight mononuclear cell infiltration was also observed partly"}, {"measurement": "local irritation to the lamina propria mucosae of the administered sites", "setting": "[12]; 150 μg/site group, one week after the final administration, monohydrate", "result": "considerable local irritation was observed; also recorded: bleeding, fibrin precipitation, inflammatory cell infiltration, salivary gland and muscular tissue damage were observed in all cases"}]}
{"smiles": "NCCC(O)(P(=O)(O)O)P(=O)(O)O", "note": "[pamidronate]", "values": [{"measurement": "effect on experimental tooth movement", "setting": "[13]; topical administration to sub-mucasa on palate-side", "result": "effective"}]}
{"smiles": "O=P(O)(O)C(O)(Cc1cccnc1)P(=O)(O)O", "note": "[risedronate]", "values": [{"measurement": "effect on experimental tooth movement", "setting": "[13]; topical administration to the sub-periosteum area adjacent to the first molar", "result": "effective"}]}
